Active and inactive are the calls of the source. The rule behind the calls is not given here.
Biological target: not listed separately
Assay: (§1) Inhibition of NADH oxidase in beef heart submitochondrial particles by end-window spectrophotometry
Parameters: species or system Bos taurus

Row | IC50 [µM] | SMILES
1 | 3.9 | C=C1C[C@@H]2[C@]3(C)C(=C(O)C(=O)[C@@]2(C)[C@]2(C(=O)OC)C(=O)O[C@H](C)C(=O)[C@@]12C)C(C)(C)C(=O)C[C@@H]3O [terretonin E]
2 | 15.1 | C=CC(C)(C)c1[nH]cnc1/C=C1/NC(=O)[C@H](C(C)C)NC1=O [AURANTIAMINE]

More lines, now with the values behind:

Row | SMILES | IC50 [µM]
3 | CCCCCCCCCC[C@H](O)[C@H]1CC[C@H]([C@H]2CC[C@H]([C@H](O)CCCCCCCCCCCCC3C(=O)O[C@@H](C)[C@@H]3O)O2)O1 (stereo partly specified) [LAHERRADURIN] | 0.00018
4 | C=C(C)[C@H]1Cc2c(ccc3c2O[C@@H]2COc4cc(OC)c(OC)cc4[C@@H]2C3=O)O1 [ROTENONE] | 0.0051
5 | C=C1C[C@@H]2[C@@]3(C)C=CC(=O)C(C)(C)C3=C(O)C(=O)[C@@]2(C)[C@]2(C(=O)OC)C(=O)O[C@H](C)C(=O)[C@@]12C [terretonin F] | 2.97

Species on record: Bos taurus
Assay: as §1

Row | Activity | SMILES
6 | inactive | O=c1ccn([C@@H]2O[C@H](CO)[C@@H](O)[C@H]2O)c(=O)[nH]1

From ChEMBL document CHEMBL1152444, “Terretonins E and F, inhibitors of the mitochondrial respiratory chain from the marine-derived fungus Aspergillus insuetus (#)” (J Nat Prod, 2009)
